Measured values reported in PMC8131363 (Scientific Reports, 2021).
Structures can show the parent of a compound that is named as a salt. Where two headings read alike, the source gives them in different places.

Legend:
cCaSR [1] = molecular target: T1, cCaSR (Felis catus, UniProt C7FF08); test: cCaSR PAM luminescence assay, double injection with 0.5 mM CaCl2, HEK293/T-REx/natClytin-cCaSR
T1 sequence (C7FF08 1-1081): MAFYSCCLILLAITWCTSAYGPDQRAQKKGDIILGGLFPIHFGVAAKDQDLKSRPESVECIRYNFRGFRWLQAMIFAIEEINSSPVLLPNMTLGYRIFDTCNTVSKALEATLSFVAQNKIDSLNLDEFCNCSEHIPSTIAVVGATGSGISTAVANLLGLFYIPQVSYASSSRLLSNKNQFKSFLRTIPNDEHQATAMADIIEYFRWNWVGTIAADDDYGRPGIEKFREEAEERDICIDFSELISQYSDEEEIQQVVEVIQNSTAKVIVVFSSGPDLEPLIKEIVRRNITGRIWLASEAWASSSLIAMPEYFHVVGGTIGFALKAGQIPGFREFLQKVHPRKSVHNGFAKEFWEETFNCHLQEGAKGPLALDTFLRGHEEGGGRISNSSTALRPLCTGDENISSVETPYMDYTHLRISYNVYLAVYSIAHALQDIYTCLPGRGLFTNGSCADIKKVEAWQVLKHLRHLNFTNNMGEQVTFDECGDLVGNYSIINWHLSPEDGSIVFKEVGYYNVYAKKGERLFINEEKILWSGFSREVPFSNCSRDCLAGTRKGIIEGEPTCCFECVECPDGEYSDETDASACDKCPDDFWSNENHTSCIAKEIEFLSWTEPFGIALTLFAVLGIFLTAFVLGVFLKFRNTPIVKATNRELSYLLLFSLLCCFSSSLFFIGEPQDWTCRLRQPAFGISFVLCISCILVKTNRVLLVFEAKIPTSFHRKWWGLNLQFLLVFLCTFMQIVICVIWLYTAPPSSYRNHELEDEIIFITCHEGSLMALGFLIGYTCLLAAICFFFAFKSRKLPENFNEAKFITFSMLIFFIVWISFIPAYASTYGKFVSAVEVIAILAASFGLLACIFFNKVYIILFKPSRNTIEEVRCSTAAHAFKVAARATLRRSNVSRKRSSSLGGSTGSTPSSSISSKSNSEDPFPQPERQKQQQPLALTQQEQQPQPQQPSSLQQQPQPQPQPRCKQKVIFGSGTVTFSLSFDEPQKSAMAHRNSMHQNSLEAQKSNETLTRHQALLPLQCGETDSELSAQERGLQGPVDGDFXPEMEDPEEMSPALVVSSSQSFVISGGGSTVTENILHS

cCaSR [2] = molecular target: T1, cCaSR; test: cell-based
cCaSR [3] = molecular target: T1, cCaSR
[4] = Supplementary Table I, PAM assay, dash = no activity
[5] = cCaSR activity, agonist assay, stable inducible cCaSR line, at least three wells
[6] = EC50 (M), agonist assay, stable inducible cCaSR line, > 0.01 M = maximal response not reached
[7] = EC50 Ago (M), Supplementary Table I, agonist assay, > 0.01 M = maximal response not reached

SMILES	EC50 PAM (M) (cCaSR [1]; [4])	EC50 (cCaSR [2]; [5])	also measured
NC(=O)[C@@H](N)CCC(=O)O [L-Isoglutamine]	-	> 0.01 M	agonist activity on cCaSR (in words) (cCaSR [3]): agonist activity
N[C@@H](Cc1ccc(OP(=O)(O)O)cc1)C(=O)O [O-Phospho-L-tyrosine]	-	> 0.01 M	agonist activity on cCaSR (in words) (cCaSR [3]): agonist activity
NC[C@@H]1O[C@H](O[C@H]2[C@@H](O)[C@H](O[C@@H]3[C@@H](O)[C@H](N)C[C@H](N)[C@H]3O[C@H]3O[C@H](CO)[C@@H](O)[C@H](O)[C@H]3N)O[C@@H]2CO)[C@H](N)[C@@H](O)[C@@H]1O [Paromomycin sulfate salt, reference compound]	-		EC50 (cCaSR [2]; [6]): 0.00108 M; EC50 (cCaSR [2]; [7]): 0.00108 M
NC(=O)CC[C@H](NC(=O)CC[C@H](N)C(=O)O)C(=O)O [γ-Glu-Gln]	-	> 0.01 M	
N[C@@H](CCC(=O)N[C@@H](CS)C(=O)O)C(=O)O [γ-Glu-Cys]	-	> 0.01 M	
N[C@@H](CP(=O)(O)O)C(=O)O [L-( +)-2-Amino-3-phosphonopropionic acid, L-(+)-2-Amino-3-phosphonopropionic acid]			EC50 PAM (M) (cCaSR [1]): -; EC50 (cCaSR [2]; cCaSR activity): > 0.01 M
NC(CC(C(=O)O)C(=O)O)C(=O)O (racemic) [γ-Carboxy-DL-glutamic acid]	-	> 0.01 M	
N[C@@H](CCS(=O)(=O)O)C(=O)O [L-Homocysteic acid]	-	> 0.01 M	
C[C@H](NC(=O)C[C@H](N)C(=O)O)C(=O)O [β-Asp-Ala]	-	> 0.01 M	
CNC(C)C1CCC(N)C(OC2C(N)CC(N)C(OC3OCC(C)(O)C(NC)C3O)C2O)O1 (stereo not shown) [Gentamicin, reference compound]	-		EC50 (cCaSR [2]; [6]): 0.000989 M; EC50 (cCaSR [2]; [7]): 0.00099 M
CC(C)C[C@H](NC(=O)CC[C@H](N)C(=O)O)C(=O)O [γ-Glu-Leu]	-	> 0.01 M	
NC[C@H]1O[C@H](O[C@H]2[C@H](O[C@@H]3O[C@H](CO)[C@@H](O)[C@H]3O)[C@@H](O)[C@H](N)C[C@@H]2N)[C@H](N)[C@@H](O)[C@@H]1O [Ribostamycin sulfate salt, reference compound]	-	> 0.01 M	
N[C@@H](CC(=O)N[C@@H](Cc1ccccc1)C(=O)O)C(=O)O [β-Asp-Phe]	-	> 0.01 M	
N[C@@H](C[C@H](O)C(=O)O)C(=O)O [2S,4S-g-Hydroxy-L-glutamic acid]	-	> 0.01 M	
CSCC[C@H](NC(=O)CC[C@H](N)C(=O)O)C(=O)O [γ-Glu-Met]	-	> 0.01 M	EC50 (cCaSR [2]; EC50 Value (heat map Fig. 5), cCaSR agonists, heat map): 0.00687 M
NC(CCP(=O)(O)O)C(=O)O (stereo not shown) [2-Amino-4-phosphonobutyric acid]	-	> 0.01 M	
CN[C@@H]1[C@@H](O)[C@@H](O[C@@H]2[C@@H](O)[C@H](O[C@H]3OC(CN)=CC[C@H]3N)[C@@H](N)C[C@H]2N)OC[C@]1(C)O [Sisomicin sulfate salt, reference compound]	-		EC50 (cCaSR [2]; [6]): 0.000299 M; EC50 (cCaSR [2]; [7]): 0.0003 M
N[C@@H](CCC(=O)N[C@@H](Cc1c[nH]c2ccccc12)C(=O)O)C(=O)O [γ-Glu-Trp]	-	> 0.01 M	
N[C@@H](CCC(=O)N[C@@H](CSCc1c[nH]c2ccccc12)C(=O)NCC(=O)O)C(=O)O [3-Glutathionyl-S-methylindole]	-	0.001 to 0.01 M	EC50 (cCaSR [2]; [6]): 0.00374 M; EC50 (cCaSR [2]; [7]): 0.00375 M
N[C@@H](CCC(=O)N[C@@H](CSCCO)C(=O)NCC(=O)O)C(=O)O [S-(2-Hydroxyethyl)glutathione]	-	0.001 to 0.01 M	EC50 (cCaSR [2]; [6]): 0.00211 M; EC50 (cCaSR [2]; [7]): 0.0021 M
N[C@@H](CCCC(=O)O)C(=O)O [L-2-Aminoadipic acid]	-	> 0.01 M	
